Laboratory results published in US20110124634A1, “BIOACTIVE COMPOUNDS FOR TREATMENT OF CANCER AND NEURODEGENERATIVE DISEASES” (PONIARD PHARMACEUTICALS, INC., priority 2008, published 2011).

Assays:
[1] = system: HSP90; experiment: Fluorescence polarization (FP) assay for affinity to HSP90; format: binding; details: means of three independent experiments
Description: Most of the compounds synthesized were evaluated for their ability to induce degradation of the HSP90 client protein Her2 in SKBR-3 cells. Selected compounds were evaluated in a fluorescence polarization (FP) assay for their affinity to HSP90.

[2] = system: HSP90 client protein Her2 in SKBR-3 cells; experiment: Her-2 degradation assay (Her-2 ELISA) in SKBr-3 cells; format: cell-based; details: Homo sapiens, means of three independent experiments
Summary of the method: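 SKBr-3 cells in McCoy's 5a/10% FBS treated with increasing inhibitor concentrations for 18 h; lysates (2 ug protein, BCA-normalised) assayed by Her-2 ELISA at 450 nm with no-lysate background subtracted. IC50 from nonlinear fit of A450 versus log inhibitor concentration.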

[3] = system: MCF-7; experiment: MTS assay (cytotoxicity), growth inhibition of MCF-7; format: cell-based; details: Homo sapiens, MCF7, 120 h, Table 4, 5 days, means of three independent experiments, read-out: MCF-7 IC50 (growth inhibition)
Summary of the method: (§1)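 Cells seeded at 2000/well for 24 h, then exposed to increasing inhibitor concentrations for 5 days. Viable cells measured by MTS, absorbance 490 nm after 2-4 h, cell-free background subtracted. IC50 from nonlinear least-squares fit of absorbance vs log concentration.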

[4] = system: HT29; experiment: MTS assay (cytotoxicity), growth inhibition of HT29; format: cell-based; details: Homo sapiens, HT-29, 120 h, Table 4, 5 days, means of three independent experiments, read-out: HT29 IC50 (growth inhibition)
Summary of the method: as §1

[5] = system: SKBR-3; experiment: MTS assay (cytotoxicity), growth inhibition of SKBR-3; format: cell-based; details: Homo sapiens, SK-BR-3, 120 h, Table 4, 5 days, means of three independent experiments, read-out: SKBR-3 IC50 (growth inhibition)
Summary of the method: as §1

[6] = system: BT474; experiment: MTS assay (cytotoxicity), growth inhibition of BT474; format: cell-based; details: Homo sapiens, BT-474, 120 h, Table 4, 5 days, means of three independent experiments, read-out: BT474 IC50 (growth inhibition)
Summary of the method: as §1

[7] = system: hMEpiC; experiment: MTS assay (cytotoxicity), growth inhibition of human mammary epithelial cell; format: cell-based; details: Table 4, means of three independent experiments
Description: Cells were seeded in 96-well plates at 2000 cells/well in a final culture volume of 100 ul for 24 hours before the addition of 25 ul of increasing concentrations of inhibitors that was incubated for 5 days. Viable cell number was determined using the CellTiter 96 AQueous One Solution Cell Proliferation Assay (Promega). Plates were read at 490 nm absorbance 2-4 hours after addition of the MTS reagent using a multiwell plate spectrophotometer. Background was determined by measuring the Abs 490 nm of cell culture medium and MTS in the absence of cells. The background value was subtracted from all values. Absorbance 490 nm values for each inhibitor were plotted against the log 10 inhibitor concentration, and IC50 values were calculated using a nonlinear least-square curve fitting program in Prism 5.

[8] = SK-BR-3, Table 1, series I, 18 hours

SMILES	IC50 ([1]; Table 1, series I) [nM]	IC50 [2, 8] [nM]	IC50 ([1]; Table 2) [nM]	IC50 ([2]; SK-BR-3, Table 2, 18 hours) [nM]	IC50 ([1]; Table 3) [nM]	IC50 ([2]; SK-BR-3, Table 3, 18 hours) [nM]	IC50 [3] [nM]	IC50 [4] [nM]	IC50 [5] [nM]	IC50 [6] [nM]	IC50 [7] [nM]
COc1c(C)cnc(CN2CC(=O)Nc3c(Cl)nc(N)nc32)c1C [Example I-2]	880	570					1490	1180	390	650	
COc1c(C)cnc(CN2CC(=O)N(CCCC(C)C)c3c(Cl)nc(N)nc32)c1C [Example I-3]	900	1910					3110	2260	970	1650	
COc1c(C)cnc(CN2CC(=O)N(C(C)C)c3c(Cl)nc(N)nc32)c1C [Example I-4]	70	50					50	60	20	30	320
COc1c(C)cnc(CN2CC(=O)N(CC(C)C)c3c(Cl)nc(N)nc32)c1C [Example I-6]	50	40	50				70	40	10	20	130
COc1c(C)cnc(CN2c3nc(N)nc(Cl)c3NC(=O)[C@H]2C)c1C [Example I-26]			400	350			790	470	220	410	

Now from value to molecule, other results behind:

IC50 ([1]; Table 1, series I) [nM]	IC50 [2, 8] [nM]	IC50 ([1]; Table 2) [nM]	IC50 ([2]; SK-BR-3, Table 2, 18 hours) [nM]	IC50 ([1]; Table 3) [nM]	IC50 ([2]; SK-BR-3, Table 3, 18 hours) [nM]	SMILES	IC50 [3] [nM]	IC50 [4] [nM]	IC50 [5] [nM]	IC50 [6] [nM]	IC50 [7] [nM]
960	930					COc1c(C)cnc(CN2CC(=O)N(C)c3c(Cl)nc(N)nc32)c1C [Example I-5]	2190	1470	460	950	
		2140	650			COc1c(C)cnc(CN2c3nc(N)nc(Cl)c3NC(=O)[C@@H]2C(C)C)c1C [Example I-28]	1600	1060	430	760	
				60	100	Cc1cnc(CN2CC(=O)N(CC(C)C)c3c(Cl)nc(N)nc32)c(C)c1Br [Example I-34]	280	140	60	130	180
